According to patent US7745450B2, “Pyrazolo[4,3-d]pyrimidines, processes for their preparation and methods for therapy” (Institute of Experimental Botany, priority 2002, dated 2010):
Read-outs that look alike come from different tables or passages of the source. Values belong to the molecule of their own block, whether it stands above or below them.

What was measured:
DNA synthesis = assay: Inhibition of DNA synthesis in Xenopus egg extracts; type: biochemical; conditions: [α-32P]dATP incorporation after 3 h
Protocol: Metaphase-arrested Xenopus egg extracts were prepared as described previously by Blow “J. Cell Biol.” 1993; 122:993 and stored in liquid nitrogen. Demembranated Xenopus sperm nuclei were prepared as described. by Blow & Laskey “Cell” 1986; 47:577. After thawing, extracts were supplemented with 25 mM phosphocreatine, 5 μg/ml creatine phosphokinase, 250 μg/ml cycloheximide, [α-^32P]dATP (for DNA synthesis assays). Demembranated sperm nuclei were added to a final sperm concentration of 3 ng/μl DNA extract and CDK inhibitor tested was then added at different concentrations. […] DNA synthesis was assessed by releasing extract into interphase by the addition of 0.3 mM CaCl2 and measuring the total amount of [α-^32P]dATP incorporation after 3 h by TCA co-precipitation.

normal human lymphocytes = assay: Immunosuppressive activity, 3H-thymidine incorporation in concanavalin A activated lymphocytes; type: cell-based; conditions: Lymphocyte, 72 hours, [3H]-TdR, read-out: Human lymphocytes ED50
Protocol: Human heparinized peripheral blood was obtained from healthy volunteers by cubital vein punction. The blood was diluted in PBS (1:3) and mononuclear cells were separated by centrifugation in Ficoll-Hypaque density gradient (Pharmacia, 1.077 g/ml) at 2200 rpm for 30 minutes. Following centrifugation, lymphocytes were washed in PBS and resuspended in cell culture medium (RMPI 1640, 2 mM glutamine, 100 U/ml penicillin, 100 μg/ml streptomycin, 10% fetal calf serum and sodium bicarbonate).
The cells were diluted at target density of 1.100.000 cells/ml were added by pipette (180 μl) into 96/well microtiter plates. Four-fold dilutions of the intended test concentration were added at time zero in 20 μl aliquots to the microtiter plate wells. Usually, test compound was evaluated at six 4-fold dilutions. In routine testing, the highest well concentration was 266.7 μM. All drug concentrations were examined in duplicates. All wells with exception of unstimulated controls were activated with 50 μl of concanavalin A (25 μg/ml). Incubations of cells with test compounds lasted for 72 hours at 37° C., in 5% CO2 atmosphere and 100% humidity. At the end of incubation period, the cells were assayed by using the [^3H]-TdR:
Cell cultures were incubated with 0.5 μCi (20 μl of stock solution […]) per well for 6 hours at 37° C. and 5% CO2. The automated cell harvester was used to lyse cells in water and adsorb the DNA onto glass-fiber filters in the format of microtiter plate. The DNA incorporated [^3H]-TdR was retained on the filter while unincorporated material passes through. The filters were dried at room temperature overnight, sealed into a sample bag with 10-12 ml of scintillant. The amount of [^3H]-TdR present in each filter (in cpm) was determined by scintillation counting in a Betaplate liquid scintillation counter. The effective dose of immunosuppressant (ED) was calculated using the following equation: ED=(CCPMdrug exposed well/mean CCPMcontrol wells)×100%.

B16 = assay: In vitro cytotoxic activity, Calcein AM; type: cell-based; conditions: three days
[1] = tested on: human melanoma cell line Arn8 (p53-responsive reporter); assay: p53-dependent transcriptional activity, β-galactosidase reporter; type: cell-based; conditions: concentration inducing maximum of β-galactosidase activity
Protocol: Cell lines established from the human cervical carcinoma (HeLa), human breast carcinoma (MCF-7, BT549 and BR474), human osteosarcoma (HOS), human colon carcinoma (HT29), murine fibroblasts (T221acZ) and the human melanoma (Arn8) cell lines were cultured in Dubecco's Modified Eagle Medium (DMEM) supplemented with 10% fetal bovine serum. Tested compounds were added from 50 mM stock solution in dimethyl-sulphoxide (DMSO) into the culture medium at final concentration 20 μM. Control cells received an equivalent volume of DMSO.
β-galactosidase activity of human melanoma cell line […] T221acZ (both stabile transfected with a p53-responsive reporter construct pRGCΔfoslacZ) (Frebung et al., Cancer Res., 52, 1992-6976) was determined. For the determination of total β-galactosidase activity, cells were lysed by 3 freeze-thaw cycles in 0.25 M Tris pH 7.5, and lysates were assayed as described by Sambrook et al., Mol. cloning, New York, 1989.
Effect of 25 and related compounds on activation of p53 protein was also analyzed in human melanoma cell line Arn8 and murine fibroblast cell line T22LacZ expressing β-galactosidase under control of p53 responsive promoter. Induction of wt p53 in these cells treated with 20 μM 25 (6, 12 and 24 hrs) leads to activation of responsive promoter and consequently to expression of β-galactosidase. Arn8 and T221acZ cells treated with 25 were fixed and examined microscopically for β-galactosidase activity using X-gal substrate leading to about 25% blue-colored cells compared to less than 1% of blue-colored cells in DMSO-treated control cells (data not shown). The total β-galactosidase activity in Arn8 cells was also assessed using colorimetric assay.

[2] = tested on: CEM (human lymphoblastoid leukemia); assay: In vitro cytotoxic activity, Calcein AM; type: cell-based; conditions: three days
Procedure, shortened: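 CEM cells were seeded at 10^4/well in DMEM + 10% FBS and exposed to six concentrations from 200 to 0.2 μM, in triplicate, for 3 days at 37 °C and 5% CO2. Viable cells were then measured by Calcein AM fluorescence after 1 h loading.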

MMK1 protein kinase = MMK1 protein kinase (Vicia faba, UniProt A0AAV1B7B8); assay: MMK1 protein kinase activity; type: biochemical
Procedure, shortened: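 Plant CDK was purified from extracts on p13^suc1-beads or by anti-cdc2a-MS immunopurification, and MMK1 was immunopurified from Vicia faba extracts. Kinase activity was read as radioactivity incorporated into histone H1 or myelin basic protein, quantified by phosphoimager.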

[3] = target: cdc2a-MS protein (plant CDK, cdc2Ms kinase) (Vicia faba, UniProt A0AAV0YZ35); assay: CDK inhibitory activity on plant kinases (plant CDK); type: biochemical; conditions: histone H1 phosphorylation
Protocol: Protein extraction and purification of pant CDK by binding to p13^suc1-beads or immunopurification with an antibody specific to the cdc2a-MS protein was carried out as described previously (Bögre et al. 1997, Plant Physiol. 113, 1997, 841-852). The MMK1 protein kinase was purified with a specific antibody from Vicia faba extracts as described by Bögre et al. 1997a, Plant Cell 9, 75-83). Protein kinase activity was measures as described above in Example 20. The quantification of radioactivity incorporated into histone H1 or myelin basic protein was undertaken using phosphoimager (FIG. 2).

[4] = tested on: Cytokinin-dependent tobacco callus Nicotiana tabacum L. cv. Wisconsins 38; assay: Tobacco callus bioassay for cytotoxicity (herbicidal activity); type: cell-based; conditions: Nicotiana tabacum, 672 h
Procedure, shortened: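 Compounds were prepared in DMSO as a 10^−3 M stock in water. Growth inhibition was scored from fresh callus weight gain after four weeks, with five replicates and the test run at least twice.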

IκB-α kinase = IκB-α kinase inhibition, in vitro kinase assay; type: biochemical
cdk1/cyclin B (CDC2) = cdk1/cyclin B (CDC2) (Homo sapiens, UniProt P06493); assay: CDK inhibition assay, cdk1/cyclin B (CDC2) kinase, histone phosphorylation; type: biochemical
Procedure, shortened: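 Human cdk1/cyclin B activity measured with 1 mg/ml histone substrate, 15 μM ATP plus [γ-32P]ATP, in HEPES pH 7.4 buffer with 10 mM MgCl2. Phosphorylation quantified by phosphorimaging; activity expressed as % of maximum, IC50 from dose-response curves by graphic analysis.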

β-adrenergic receptors = assay: Modulation of isoproterenol-induced cAMP synthesis in rat C6 glioma; type: cell-based; conditions: cAMP synthesis induced by 5 μM (−) isoproterenol, simultaneous addition, 30 min
Protocol: Mechanism of action of novel compounds is presented on FIG. 3. Rat C6 glioma (ATCC N° CCL107) was cultivated in monolayer in serum-free chemically defined medium containing Ham's F10/minimal essential medium (1:1 vol/vol), 2 mM L-glutamine, 1% (vol/vol) minimal essential medium vitamins (100×), 1% (vol/vol) minimal essential medium nonessential amino acids (100×), 100 U/ml penicillin, 100 μg/ml streptomycin and 30 nM sodium selenide. Incubation was at 37° C. in a humidified atmosphere. Assays were performed in the logarithmic growth phase at a density of 2.5×10^5 cells/cm^2. Intracellular cAMP synthesis was induced by addition of 5 μM (−) isoproterenol. After 30 min incubation at 37° C. the medium was removed and the cellular amount of cAMP determined using the cAMP-enzyme immunoassay kit of Amersham. The I50 is determined from a dose-response curve in duplicate.
The effect of seven purine-analogs was measured after simultaneous addition with isoproterenol.

[5] = read-out: 10^−5 M BAP IC50, 10^−5 M 6-benzylaminopurine, four weeks
[6] = read-out: 10^−6 M BAP IC50, 10^−6 M 6-benzylaminopurine, four weeks

MMK1 protein kinase, sequence (A0AAV1B7B8 1-394): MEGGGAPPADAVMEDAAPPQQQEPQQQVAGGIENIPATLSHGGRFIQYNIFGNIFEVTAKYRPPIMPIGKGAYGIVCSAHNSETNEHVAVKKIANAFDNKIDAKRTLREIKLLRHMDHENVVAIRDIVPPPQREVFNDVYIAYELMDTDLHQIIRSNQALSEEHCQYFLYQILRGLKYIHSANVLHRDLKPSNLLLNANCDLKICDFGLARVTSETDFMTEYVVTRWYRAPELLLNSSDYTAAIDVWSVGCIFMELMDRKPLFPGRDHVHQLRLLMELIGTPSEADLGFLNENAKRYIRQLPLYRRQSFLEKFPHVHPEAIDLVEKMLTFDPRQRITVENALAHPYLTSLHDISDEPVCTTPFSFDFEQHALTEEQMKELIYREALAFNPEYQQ
cdc2a-MS protein (plant CDK, cdc2Ms kinase), sequence (A0AAV0YZ35 1-294): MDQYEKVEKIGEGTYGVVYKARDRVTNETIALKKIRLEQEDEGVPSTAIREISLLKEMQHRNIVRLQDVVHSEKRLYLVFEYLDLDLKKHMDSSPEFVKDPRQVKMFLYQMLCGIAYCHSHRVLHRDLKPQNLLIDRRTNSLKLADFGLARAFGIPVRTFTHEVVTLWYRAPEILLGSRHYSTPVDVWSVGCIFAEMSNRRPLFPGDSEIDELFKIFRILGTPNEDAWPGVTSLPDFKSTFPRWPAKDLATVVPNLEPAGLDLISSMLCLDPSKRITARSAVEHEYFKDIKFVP
cdk1/cyclin B (CDC2), sequence (P06493 whole entry, species assumed): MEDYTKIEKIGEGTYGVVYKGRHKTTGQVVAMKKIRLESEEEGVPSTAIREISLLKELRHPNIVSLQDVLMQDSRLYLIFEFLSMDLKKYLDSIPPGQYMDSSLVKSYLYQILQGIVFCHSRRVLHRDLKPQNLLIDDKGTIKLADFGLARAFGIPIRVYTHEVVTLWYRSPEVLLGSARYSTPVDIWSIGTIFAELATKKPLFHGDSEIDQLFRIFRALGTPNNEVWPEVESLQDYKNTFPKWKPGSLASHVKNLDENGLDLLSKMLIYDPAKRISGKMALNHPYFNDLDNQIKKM
cdk1/cyclin B (CDC2), sequence (P14635 whole entry partner, species assumed): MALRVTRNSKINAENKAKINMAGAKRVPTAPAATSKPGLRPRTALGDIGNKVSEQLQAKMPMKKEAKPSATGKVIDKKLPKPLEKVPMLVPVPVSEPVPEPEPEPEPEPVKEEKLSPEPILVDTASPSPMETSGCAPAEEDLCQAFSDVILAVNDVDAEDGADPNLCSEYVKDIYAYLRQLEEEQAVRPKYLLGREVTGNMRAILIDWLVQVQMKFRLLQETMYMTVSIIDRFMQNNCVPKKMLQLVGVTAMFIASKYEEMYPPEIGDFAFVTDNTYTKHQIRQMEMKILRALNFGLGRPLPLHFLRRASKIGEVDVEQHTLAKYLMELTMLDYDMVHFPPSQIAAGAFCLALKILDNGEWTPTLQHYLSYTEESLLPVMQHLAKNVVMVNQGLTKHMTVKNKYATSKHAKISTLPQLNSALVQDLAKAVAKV

SMILES: CC(C)c1n[nH]c2c(Nc3ccc(Cl)c(N)c3)nc(NCCCO)nc12
IC50 (DNA synthesis): 400 nM

SMILES: Cc1n[nH]c2c(NCc3ccccc3)nc(N[C@@H](CO)C(C)C)nc12
EC50 (normal human lymphocytes): 6500 nM | GI50 (B16; Mus musculus, B16, 72 h): 4300 nM | Max β-Gal. Activtity Conc. [1]: 6.5 µM | GI50 ([2]; Homo sapiens, 72 h): 2800 nM | IC50 (MMK1 protein kinase): 400 nM

SMILES: CC(C)c1n[nH]c2c(Nc3cccc(Cl)c3)nc(Cl)nc12 [Example 11, 7-(3-chloroanilino)-5-chloro-3-isopropylpyrazolo[4,3-d]pyrimidine]
melting point: 257 to 259 °C

SMILES: CC[C@H](CO)Nc1nc(NCc2ccccc2)c2[nH]nc(C)c2n1
EC50 (normal human lymphocytes): 9500 nM | GI50 (B16; Mus musculus, B16, 72 h): 4200 nM | Max β-Gal. Activtity Conc. [1]: 9.5 µM | GI50 ([2]; Homo sapiens, 72 h): 3400 nM | IC50 (MMK1 protein kinase): 1300 nM

SMILES: CC(C)c1n[nH]c2c(Nc3cccc(Cl)c3)nc(N[C@@H](CO)C(C)C)nc12
EC50 (normal human lymphocytes): 3200 nM | GI50 (B16; Mus musculus, B16, 72 h): 1700 nM | Max β-Gal. Activtity Conc. [1]: 7 µM | GI50 ([2]; Homo sapiens, 72 h): 1200 nM

SMILES: COc1ccc(CNc2nc(NCc3ccc(OC)cc3)c3[nH]nc(C(C)C)c3n2)cc1 [Example 17, 5,7-di[(4-methoxybenzyl)amino]-3-isopropylpyrazolo[4,3-d]pyrimidine]
melting point: 60 to 85 °C

SMILES: CC(C)c1n[nH]c2c(NCc3ccccc3)nc(NCCN)nc12 [Example 14, 7-benzylamino-5-(2-aminoethyl)amino-3-isopropylpyrazolo[4,3-d]pyrimidine]
melting point: 145 to 147 °C | IC50 [4, 5]: > 50000 nM | IC50 [4, 6]: > 50000 nM | IC50 (IκB-α kinase): 1200 nM | IC50 (cdk1/cyclin B (CDC2)): 400 nM | Effect: activation (β-adrenergic receptors): 1.3-fold activation

SMILES: CC[C@H](CO)Nc1nc(Nc2cccc(Cl)c2)c2[nH]nc(C(C)C)c2n1
EC50 (normal human lymphocytes): 1800 nM | Max β-Gal. Activtity Conc. [1]: 12 µM

Further lines, with some results ahead:

IC50 (DNA synthesis): 3700 nM
SMILES: CC(C)c1n[nH]c2c(NCc3cccc(Cl)c3O)nc(NCCCO)nc12

IC50 [3]: 2 nM
SMILES: CC[C@H](CO)Nc1nc(NCc2cc(O)c(OC)cc2O)c2[nH]nc(C(C)C)c2n1
GI50 (B16): 5700 nM | GI50 [2]: 3500 nM

IC50 [3]: 0.7 nM
SMILES: COc1cc(O)c(CNc2nc(N[C@@H](CO)C(C)C)nc3c(C(C)C)n[nH]c23)c(O)c1
GI50 (B16): 2700 nM | GI50 [2]: 1200 nM

IC50 (DNA synthesis): 300 nM | IC50 (IκB-α kinase): 400 nM | IC50 (cdk1/cyclin B (CDC2)): 200 nM
SMILES: CC[C@H](CO)Nc1nc(NCc2ccc(Cl)c(N)c2N)c2[nH]nc(C(C)C)c2n1
IC50 [4, 5]: 49000 nM | IC50 [4, 6]: 8300 nM
